This passage reports T/C results from PubChem BioAssay AID192 (DTP/NCI, 2004).

“And” between values parts separate entries of the source, which are not always exact repeats. Identical values can stand only once. Inconclusive results and toxic doses are left out.

The experiment has as its system BDF1 mice, B16 melanoma ip, median survival T/C. The experiment in a line: NCI In Vivo Anticancer Drug Screen. Data for tumor model B16 Melanoma (intraperitoneal) in B6D2F1 (BDF1) mice. The settings on record: endpoint: median survival time, higher = longer survival. The procedure, abridged:
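Survival or tumor size is measured after treatment of tumor-bearing mice and normalised to the vehicle-treated control group.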

Setting [1] is: dose: 100.0 mg/kg/injection, schedule: Q01DX009 (ip), vehicle: saline with Tween-80.
The mark [2] stands for this setting: dose: 200.0 mg/kg/injection, schedule: Q01DX009 (ip), vehicle: saline with Tween-80.
The mark [3] stands for this setting: dose: 400.0 mg/kg/injection, schedule: Q01DX009 (ip), vehicle: saline with Tween-80.
The mark [4] stands for this setting: dose: 100.0 mg/kg/injection, schedule: Q01DX009 (ip), vehicle: Klucel (hydroxypropylcellulose) (HPC).
[5] abbreviates: dose: 200.0 mg/kg/injection, schedule: Q01DX009 (ip), vehicle: Klucel (hydroxypropylcellulose) (HPC).
Setting [6] is: dose: 400.0 mg/kg/injection, schedule: Q01DX009 (ip), vehicle: Klucel (hydroxypropylcellulose) (HPC).
Setting [7] is: dose: 12.5 mg/kg/injection, schedule: Q01DX009 (ip), vehicle: saline with Tween-80.
Where [8] appears, read: dose: 25.0 mg/kg/injection, schedule: Q01DX009 (ip), vehicle: saline with Tween-80.
Where [9] appears, read: dose: 50.0 mg/kg/injection, schedule: Q01DX009 (ip), vehicle: saline with Tween-80.
[10] abbreviates: dose: 25.0 mg/kg/injection, schedule: Q01DX009 (ip), vehicle: Klucel (hydroxypropylcellulose) (HPC).
The mark [11] stands for this setting: dose: 50.0 mg/kg/injection, schedule: Q01DX009 (ip), vehicle: Klucel (hydroxypropylcellulose) (HPC).
Setting [12] is: dose: 1.5 mg/kg/injection, schedule: Q01DX009 (ip), vehicle: saline with Tween-80.
Setting [13] is: dose: 3.0 mg/kg/injection, schedule: Q01DX009 (ip), vehicle: saline with Tween-80.

Regarding `COc1cc(C(=O)N2CCN(c3ccccc3)CC2)c2ccccc2n1`, the T/C runs as follows: under setting [1], 119 % of control; under setting [2], 119 % of control; under setting [3], 124 % of control.
In the case of `CCOc1ccc(NC(=O)c2cccc(C(=O)Nc3ccc(OCC)cc3)c2)cc1`, the T/C was 103 % of control under setting [4], 93 % of control under setting [5] and 86 % of control under setting [6].
For the molecule `CCC(C)C(=O)OC1C(=O)OC2CC3C(C)=CC(=O)C(O)C3(C)C3C4(O)OCC23C1C(C)C4O` (centres undefined), the T/C runs as follows: (dose: 1.4 mg/kg/injection, schedule: Q01DX009 (ip), vehicle: saline) 157 % of control; (dose: 2.8 mg/kg/injection, schedule: Q01DX009 (ip), vehicle: saline with Tween-80) 153 % of control.
For the molecule `CCN(CC)C(=O)c1ccc(C(Cl)(Cl)Cl)cc1`, the T/C runs as follows: (dose: 6.25 mg/kg/injection, schedule: Q01DX009 (ip), vehicle: saline with Tween-80) 95 % of control; under setting [7], 98 % of control; under setting [8], 90 % of control and 92 % of control.
On to `CN(C)c1ccc2cc(S(=O)(=O)O)cc(O)c2c1`, for which the T/C is 97 % of control under setting [1] and 94 % of control under setting [2].
On to `CCc1ccc(NC(=O)Nc2cccc(Cl)c2)cc1`, for which the T/C by setting is: under setting [4], 91 % of control; under setting [5], 102 % of control; under setting [6], 88 % of control.
For `O=NNc1ccccn1`, the T/C by setting is: (dose: 3.12 mg/kg/injection, schedule: Q01DX009 (ip), vehicle: saline) 116 % of control; (dose: 6.25 mg/kg/injection, schedule: Q01DX009 (ip), vehicle: saline) 119 % of control; (dose: 12.5 mg/kg/injection, schedule: Q01DX009 (ip), vehicle: saline) 156 % of control and 165 % of control.
With `C=CCNC(=S)Nc1cc(Cl)ccc1C`, the T/C was 103 % of control (dose: 50.0 mg/kg/injection, schedule: Q04DX003 (ip), vehicle: Klucel (hydroxypropylcellulose) (HPC)) and 100 % of control (dose: 100.0 mg/kg/injection, schedule: Q04DX003 (ip), vehicle: Klucel (hydroxypropylcellulose) (HPC)).
Turning to `CC1(C)OCC(CO)(Nc2nc(N3CC3)nc(N3CC3)n2)CO1`, where the note is “dose: 0.31 mg/kg/injection, schedule: Q01DX009 (ip), vehicle: saline”, the T/C was 105 % of control and 112 % of control.
`CC(=O)Nc1ccn(C2OC(CO)C(O)C2O)c(=O)n1` (centres undefined): the T/C runs as follows: under setting [8], 88 % of control; under setting [9], 97 % of control; under setting [2], 92 % of control.
In the case of `CC(C)(C)OC(=O)NC(CCC(N)=O)C(=O)ON1C(=O)CCC1=O` (centres undefined), the T/C is, setting by setting: under setting [9], 100 % of control; under setting [1], 93 % of control; under setting [2], 97 % of control; under setting [3], 86 % of control.
Take `Cc1noc(/N=C/c2cccc(Cl)c2)c1C`: the T/C reads like this: (dose: 175.0 mg/kg/injection, schedule: Q04DX003 (ip), vehicle: Klucel (hydroxypropylcellulose) (HPC)) 107 % of control; (dose: 265.0 mg/kg/injection, schedule: Q04DX003 (ip), vehicle: Klucel (hydroxypropylcellulose) (HPC)) 116 % of control; (dose: 400.0 mg/kg/injection, schedule: Q04DX003 (ip), vehicle: Klucel (hydroxypropylcellulose) (HPC)) 109 % of control; (dose: 600.0 mg/kg/injection, schedule: Q04DX003 (ip), vehicle: Klucel (hydroxypropylcellulose) (HPC)) 107 % of control.
On to `S=C(Nc1ccccn1)c1ccccn1`, for which the T/C was 92 % of control under setting [7], 112 % of control under setting [8], 94 % of control under setting [9] and 93 % of control under setting [1].
With `C=CCNc1ccc(C)cc1`, the T/C is, setting by setting: (dose: 12.5 mg/kg/injection, schedule: Q01DX009 (ip), vehicle: Klucel (hydroxypropylcellulose) (HPC)) 105 % of control; under setting [10], 96 % of control; under setting [11], 88 % of control; under setting [4], 91 % of control.
Take `O=S(=O)(Nc1ccccc1)c1ccc(C2CC3(Cl)C(Cl)=C(Cl)C2(Cl)C3(Cl)Cl)cc1` (centres undefined): the T/C under setting [4] was 100 % of control and the T/C under setting [5] was 87 % of control.
Consider `CC1(C)N=C(N)N=C(N)N1c1ccc(CCc2ccccc2)cc1`, for which the T/C reads like this: (dose: 0.75 mg/kg/injection, schedule: Q01DX009 (ip), vehicle: saline with Tween-80) 97 % of control; under setting [12], 100 % of control; under setting [13], 102 % of control; (dose: 6.0 mg/kg/injection, schedule: Q01DX009 (ip), vehicle: saline with Tween-80) 95 % of control.
As for `COC(=O)C(CCl)NC(C)=O` (centres undefined), the T/C was 102 % of control (dose: 100.0 mg/kg/injection, schedule: Q01DX009 (ip), vehicle: saline); 102 % of control (dose: 200.0 mg/kg/injection, schedule: Q01DX009 (ip), vehicle: saline); 117 % of control (dose: 400.0 mg/kg/injection, schedule: Q01DX009 (ip), vehicle: saline).
On to `O=C1NC(=O)C2(CCc3ccc(N(CCCl)CCCl)cc32)N1` (centres undefined), for which the T/C is, setting by setting: under setting [12], 120 % of control; under setting [13], 116 % of control; (dose: 12.0 mg/kg/injection, schedule: Q01DX009 (ip), vehicle: saline with Tween-80) 183 % of control; (dose: 12.5 mg/kg/injection, schedule: Q01DX004 (oral), vehicle: saline with Tween-80) 102 % of control.
For the molecule `CCC(C)C1NC(=O)C(NC(=O)c2c3[nH]c4c(C(=O)NC5C(=O)NC(C(C)CC)C(=O)N6CCCC6C(=O)N(C)CC(=O)N(C)C(C(C)C)C(=O)OC5C)ccc(C)c4oc-3c(C)c(=O)c2=O)C(C)OC(=O)C(C(C)C)N(C)C(=O)CN(C)C(=O)C2CCCN2C1=O` (centres undefined), the T/C is, setting by setting: (dose: 0.05 mg/kg/injection, schedule: Q01DX009 (ip), vehicle: water) 98 % of control; (dose: 0.1 mg/kg/injection, schedule: Q01DX009 (ip), vehicle: water) 102 % of control; (dose: 0.2 mg/kg/injection, schedule: Q01DX009 (ip), vehicle: water) 97 % of control; (dose: 0.4 mg/kg/injection, schedule: Q01DX009 (ip), vehicle: water) 103 % of control; (dose: 0.8 mg/kg/injection, schedule: Q01DX009 (ip), vehicle: water) 100 % of control; (dose: 1.6 mg/kg/injection, schedule: Q01DX009 (ip), vehicle: water) 101 % of control.
Take `Nc1c(Br)cc2c(c1Br)Cc1cc(Cl)ccc1-2`: the T/C is 108 % of control (dose: 6.25 mg/kg/injection, schedule: Q01DX009 (ip), vehicle: other); 96 % of control (dose: 12.5 mg/kg/injection, schedule: Q01DX009 (ip), vehicle: other); 96 % of control (dose: 25.0 mg/kg/injection, schedule: Q01DX009 (ip), vehicle: other); 94 % of control under setting [11]; 89 % of control (dose: 50.0 mg/kg/injection, schedule: Q01DX009 (ip), vehicle: other); 107 % of control under setting [4]. The T/C is, setting by setting: (dose: 100.0 mg/kg/injection, schedule: Q04DX003 (ip), vehicle: other) 94 % of control; (dose: 200.0 mg/kg/injection, schedule: Q04DX003 (ip), vehicle: other) 86 % of control.
For `CCCCCCCC(=O)CC(C)C`, the T/C reads like this: under setting [4], 106 % of control; under setting [5], 86 % of control.
`COC(=O)c1ccccc1NC(c1ccccn1)c1ccc2cccnc2c1O` (centres undefined): the T/C reads like this: under setting [10], 94 % of control; under setting [11], 108 % of control; under setting [4], 98 % of control.
For the molecule `Nc1ccc(-c2c(N)ncc3ccccc23)cc1`, the T/C under setting [7] was 101 % of control, the T/C under setting [8] was 104 % of control and the T/C under setting [9] was 103 % of control.
As for `O=C1c2ccccc2C(=O)N1C[P+](c1ccccc1)(c1ccccc1)c1ccccc1`, the T/C was 117 % of control (dose: 6.25 mg/kg/injection, schedule: Q01DX009 (ip), vehicle: water); 112 % of control (dose: 12.5 mg/kg/injection, schedule: Q01DX009 (ip), vehicle: water); 123 % of control (dose: 25.0 mg/kg/injection, schedule: Q01DX009 (ip), vehicle: water).
For `Cc1ccc(Cl)cc1NC(=O)c1cccc(C(=O)Nc2cc(Cl)ccc2C)c1`, the T/C is, setting by setting: under setting [11], 96 % of control; under setting [4], 93 % of control.
In the case of `CC1CCC2C1C1C(CCC2(C)O)C1(C)C` (centres undefined), the T/C is 97 % of control (dose: 75.0 mg/kg/injection, schedule: Q01DX009 (ip), vehicle: Klucel (hydroxypropylcellulose) (HPC)); 94 % of control (dose: 150.0 mg/kg/injection, schedule: Q01DX009 (ip), vehicle: Klucel (hydroxypropylcellulose) (HPC)); 97 % of control (dose: 300.0 mg/kg/injection, schedule: Q01DX009 (ip), vehicle: Klucel (hydroxypropylcellulose) (HPC)).
